Experimental data reported in patent US12510533B2, “Methods for treating multiple myeloma and the use of companion biomarkers for 4-(4-(4-(((2-(2,6-dioxopiperidin-3-yl)-1-oxoisoindolin-4-yl)oxy)methyl)benzyl)piperazin-1-yl)-3-fluorobenzonitrile” (Celgene Corporation, priority 2018, dated 2025).
Read-outs that look alike come from different tables or passages of the source.

Columns and labels:
[1] = biological target: T1, Aiolos (Homo sapiens, UniProt Q96SW2+Q9UKT9); assay: Aiolos degradation, ePL luminescence assay in DF15 cells expressing ePL-tagged Aiolos; format: cell-based; conditions: for DC50: read-out: Degradation of Aiolos IC50, DF15 cells
T1 construct: expressed in transfected cells; host or cells: DF15 multiple myeloma cells
T1 sequence (Q9UKT9 whole entry): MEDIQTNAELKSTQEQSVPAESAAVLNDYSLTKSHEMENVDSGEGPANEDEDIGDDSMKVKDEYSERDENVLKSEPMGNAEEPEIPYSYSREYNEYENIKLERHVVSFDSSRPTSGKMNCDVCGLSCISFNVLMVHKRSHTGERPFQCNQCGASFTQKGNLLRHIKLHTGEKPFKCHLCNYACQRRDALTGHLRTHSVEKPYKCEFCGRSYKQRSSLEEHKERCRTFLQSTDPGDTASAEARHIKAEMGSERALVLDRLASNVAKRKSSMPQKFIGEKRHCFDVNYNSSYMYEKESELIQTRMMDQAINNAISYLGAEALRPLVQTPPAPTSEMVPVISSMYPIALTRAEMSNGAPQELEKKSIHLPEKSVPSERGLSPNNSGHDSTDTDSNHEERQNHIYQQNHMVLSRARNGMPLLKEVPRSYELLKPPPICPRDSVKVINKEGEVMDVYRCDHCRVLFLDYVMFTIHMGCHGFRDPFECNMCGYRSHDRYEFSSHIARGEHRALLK
T1 sequence (Q96SW2 whole entry): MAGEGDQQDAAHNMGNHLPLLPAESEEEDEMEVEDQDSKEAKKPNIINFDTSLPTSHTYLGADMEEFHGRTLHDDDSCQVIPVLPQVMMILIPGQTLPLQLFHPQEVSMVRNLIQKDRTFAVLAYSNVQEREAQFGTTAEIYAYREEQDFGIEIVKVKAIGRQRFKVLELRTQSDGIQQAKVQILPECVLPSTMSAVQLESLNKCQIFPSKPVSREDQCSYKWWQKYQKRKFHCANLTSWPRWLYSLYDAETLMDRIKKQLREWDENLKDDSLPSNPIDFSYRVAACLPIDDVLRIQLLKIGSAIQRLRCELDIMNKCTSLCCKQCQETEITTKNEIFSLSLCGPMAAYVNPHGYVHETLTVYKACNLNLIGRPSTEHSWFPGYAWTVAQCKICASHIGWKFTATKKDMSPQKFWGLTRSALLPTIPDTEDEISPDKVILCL
T1 sequence (Q16531 2-1140, further chain): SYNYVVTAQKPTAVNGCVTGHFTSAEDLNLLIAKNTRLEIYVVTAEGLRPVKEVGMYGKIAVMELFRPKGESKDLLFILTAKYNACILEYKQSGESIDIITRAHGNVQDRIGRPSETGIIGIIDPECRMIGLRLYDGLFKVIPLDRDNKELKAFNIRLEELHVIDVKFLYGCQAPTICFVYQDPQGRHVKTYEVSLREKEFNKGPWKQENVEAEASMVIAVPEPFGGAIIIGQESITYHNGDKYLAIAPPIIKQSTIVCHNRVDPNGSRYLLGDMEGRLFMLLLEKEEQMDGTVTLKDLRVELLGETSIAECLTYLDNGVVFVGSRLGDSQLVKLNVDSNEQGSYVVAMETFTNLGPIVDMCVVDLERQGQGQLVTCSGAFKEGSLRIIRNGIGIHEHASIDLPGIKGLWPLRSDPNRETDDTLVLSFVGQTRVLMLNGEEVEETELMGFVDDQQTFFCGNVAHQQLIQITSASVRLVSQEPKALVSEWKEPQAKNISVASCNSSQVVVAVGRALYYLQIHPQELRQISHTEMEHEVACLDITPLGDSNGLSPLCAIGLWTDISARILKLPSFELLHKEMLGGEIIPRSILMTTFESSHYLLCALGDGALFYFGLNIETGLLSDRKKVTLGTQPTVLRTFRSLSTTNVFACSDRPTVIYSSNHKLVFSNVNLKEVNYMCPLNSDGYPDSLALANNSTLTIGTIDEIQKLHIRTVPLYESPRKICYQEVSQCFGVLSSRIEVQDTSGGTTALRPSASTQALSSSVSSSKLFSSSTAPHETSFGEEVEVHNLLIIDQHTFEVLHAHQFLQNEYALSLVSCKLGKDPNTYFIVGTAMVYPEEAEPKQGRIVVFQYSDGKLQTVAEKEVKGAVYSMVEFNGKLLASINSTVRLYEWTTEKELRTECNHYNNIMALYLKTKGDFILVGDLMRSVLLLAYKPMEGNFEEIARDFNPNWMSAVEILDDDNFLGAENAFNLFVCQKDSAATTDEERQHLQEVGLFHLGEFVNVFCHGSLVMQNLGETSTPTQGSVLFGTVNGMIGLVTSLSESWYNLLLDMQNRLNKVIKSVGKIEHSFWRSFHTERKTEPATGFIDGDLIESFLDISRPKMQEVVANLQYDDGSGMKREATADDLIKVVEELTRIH
Experimental: FIG. 1 illustrates that Compound 2 and Compound 3 degraded Aiolos protein in a time and concentration dependent manner. DF15 cells expressing Enhanced ProLabel (ePL)-tagged Aiolos were incubated with Compound 2 (triangle) or Compound 3 (square) for 45 minutes, 90 minutes, or 3 hours at the indicated concentrations. Cell extracts were then generated and the amount of Aiolos-ePL protein was determined by ePL luminescence assay.
The relative effectiveness of Compound 2 and Compound 3 to promote the destruction of Aiolos protein by the CRL4^CRBN E3 ubiquitin ligase was investigated in DF15 myeloma cells at different time points (45 minutes, 90 minutes, and 3 hours). DF15 cells expressing Enhanced ProLabel (ePL)-tagged Aiolos were incubated with Compound 2 or Compound 3 for 45 minutes, 90 minutes, or 3 hours. Cell extracts were then generated and the amount of Aiolos ePL protein was determined by ePL luminescence assay. Values shown in Table 1 correspond to data presented in FIG. 1 for Aiolos content vs. concentration.

[2] = tested on: OPM2 cells; assay: cells; format: cell-based, human; conditions: Homo sapiens, read-out: Inhibition of Proliferation of OPM2 Cells IC50
Experimental: The effect of the stabilizing mutations on cell proliferation was also measured.

N#Cc1ccc(N2CCN(Cc3ccc(COc4cccc5c4CN([C@@H]4CCC(=O)NC4=O)C5=O)cc3)CC2)c(F)c1 [Compound 3, (R)-4-(4-(4-(((2-(2,6-dioxopiperidin-3-yl)-1-oxoisoindolin-4-yl)oxy)methyl)benzyl)piperazin-1-yl)-3-fluorobenzonitrile]
manner of Aiolos degradation ([1]; 45 minutes, 90 minutes, 3 hours): time-dependent and concentration-dependent
inhibition at 0.001 µM ([1]; DF15, read-out: inhibition at 0.001 μM): 13%
DC50 ([1]; 45 minutes incubation): > 0.1 µM
DC50 ([1]; 90 minutes incubation): 0.0059 µM
DC50 ([1]; 3 hours incubation): 0.00045 µM

Nc1cccc2c1C(=O)N(C1CCC(=O)NC1=O)C2=O (stereo not drawn) [Pomalidomide, pomalidomide, reference compound]
IC50 ([2]; OPM-2, Parental): 0.064 µM
IC50 ([2]; OPM-2, overexpressing Aiolos Q147H): 0.056 µM
IC50 ([2]; OPM-2, overexpressing Aiolos): 0.089 µM
IC50 ([2]; OPM-2, overexpressing Ikaros-G151A): > 0.1 µM
IC50 ([2]; OPM-2, overexpressing Ikaros-Q146H): > 0.1 µM
IC50 ([2]; OPM-2, overexpressing Ikaros): 0.091 µM
IC50 ([2]; OPM-2, overexpressing ZFP91-Q400H): 0.073 µM
